Data on 10 compounds can be found in ChEMBL document CHEMBL1201862, “PubChem BioAssay data set” (2004).

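Briefly, cells in 96-well plates were exposed to five compound concentrations for 48 h, and endpoints were estimated by linear interpolation. GI50 marks 50% less growth.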 Activity calls are given as the source filed them. Cut-off read from the data, not from the text of the source: active = GI50 up to about 1.1 µM and inactive = higher. Bounds are passed on as bounds.

Test systems include OVCAR-8; 786-0; PC-3; HCT-116; SF-539; SN12C; OVCAR-3; HCC 2998; Hs-578T; NCI-H460; TK-10; BT-549; M14; SR; SF-268; T47D; NCI-H522; EKVX; SW-620; RXF 393.
Common to all, as to assay: inhibition of tumour cell growth, NCI panel, 48 h

As to `O=C(NNC(=O)c1ccccc1SSc1ccccc1C(=O)NNC(=O)c1ccccc1S)c1ccccc1S`, the GI50 is 16.3 µM (inactive) in the assay on OVCAR-8; 11.4 µM (inactive) in the assay with 786-0; 24.6 µM (inactive) in the assay with PC-3; 7.18 µM (inactive) in the assay on HCT-116; 13.8 µM (inactive) in the assay with SF-539; 18.5 µM (inactive) in the assay with SN12C. The GI50 in the assay on OVCAR-3 is 31 µM (inactive); with HCC 2998 it was 48.2 µM (inactive); with Hs-578T, 0.404 µM (active); in the assay on NCI-H460, 10.4 µM (inactive); in the assay on TK-10, 51.8 µM (inactive); in the assay with BT-549, 13.5 µM (inactive). For the same compound, the GI50 is 17.7 µM (inactive) in the assay with M14; 5.35 µM (inactive) in the assay on SR; 4.24 µM (inactive) with SF-268; 9.16 µM (inactive) in the assay on T47D; 0.49 µM (active) with NCI-H522; 15 µM (inactive) with EKVX. Also, the GI50 in the assay with SW-620 was 12 µM (inactive); in the assay on RXF 393, 64.9 µM (inactive).

Consider `CC(O)CCC(=O)c1ccoc1` (stereo unspecified), for which the GI50 was 6840 µM (inactive) in the assay with OVCAR-8; > 10000 µM (inactive) in the assay with 786-0; 6120 µM (inactive) in the assay on PC-3; 5740 µM (inactive) in the assay on HCT-116; 9930 µM (inactive) with SF-539; 7180 µM (inactive) in the assay with SN12C. The GI50 is 3610 µM (inactive) in the assay with OVCAR-3; 8610 µM (inactive) in the assay on HCC 2998; 5120 µM (inactive) in the assay on Hs-578T; 7230 µM (inactive) in the assay with NCI-H460; 6980 µM (inactive) in the assay on TK-10; 2920 µM (inactive) in the assay on BT-549. Further, the GI50 is > 9420 µM (inactive) with M14; > 9290 µM (inactive) with SR; 7000 µM (inactive) with SF-268; 5010 µM (inactive) in the assay on T47D; 3680 µM (inactive) in the assay with NCI-H522; 6080 µM (inactive) in the assay with EKVX. The results for the GI50 in the assay with SW-620 and with RXF 393 were > 9750 µM (inactive) and 4850 µM (inactive), respectively.

As to `C=C(C=O)c1c2c(nc3ccccc13)C(=O)c1ccccc1C2=O`, the GI50 with OVCAR-8 is 0.434 µM (active); in the assay on 786-0 it was 0.826 µM (active); with PC-3, 1.29 µM (inactive); with HCT-116 it was 0.619 µM (active); in the assay on SF-539, 0.673 µM (active); with SN12C it was 0.504 µM (active). Also, the GI50 is 0.398 µM (active) with OVCAR-3; 2.75 µM (inactive) with HCC 2998; 0.617 µM (active) in the assay on Hs-578T; 0.581 µM (active) in the assay on NCI-H460; 1.02 µM (active) with TK-10; 1.82 µM (inactive) with BT-549. For the same compound, the GI50 in the assay with M14 was 0.562 µM (active); with SR, 0.24 µM (active); in the assay on SF-268, 0.668 µM (active); in the assay on T47D, 0.646 µM (active); in the assay with NCI-H522, 0.366 µM (active); with EKVX it was 1.19 µM (inactive). Further, the GI50 in the assay on SW-620 was 0.518 µM (active); in the assay on RXF 393 it was 0.304 µM (active).

Regarding `Cc1c(C)c(C)c(-n2c(=O)n(C)c(=O)n2-c2cc(C(C)(C)C)cc(C(C)(C)C)c2O)c(C)c1C`, the GI50 in the assay on OVCAR-8 is 10.4 µM (inactive); in the assay on 786-0, 10.4 µM (inactive); in the assay on PC-3, 3.03 µM (inactive); with HCT-116, 5.79 µM (inactive); in the assay on SF-539, 10.5 µM (inactive); in the assay with SN12C, 9.44 µM (inactive). Further, the GI50 is 4.68 µM (inactive) in the assay with OVCAR-3; 9.93 µM (inactive) in the assay on HCC 2998; 10.4 µM (inactive) with Hs-578T; 11.4 µM (inactive) in the assay with NCI-H460; 10.1 µM (inactive) in the assay on TK-10; 13.5 µM (inactive) in the assay with BT-549. Also, the GI50 in the assay on M14 is 10.2 µM (inactive); with SR it was 3.91 µM (inactive); in the assay with SF-268, 12.4 µM (inactive); with T47D, 4.89 µM (inactive); with NCI-H522, 4.54 µM (inactive); in the assay with EKVX it was 10.5 µM (inactive). Also, the values for the GI50 with SW-620 and in the assay on RXF 393 were 13.6 µM (inactive) and 2.97 µM (inactive), respectively.

Turning to `COC(=O)[C@@H](Cc1ccccc1)N1O[C@]12CCCC[C@@H]2NC(=O)OC(C)(C)C` (stereo partly specified), the GI50 in the assay with 786-0 is 26.1 µM (inactive); with PC-3, 25.6 µM (inactive); in the assay on HCT-116, 38.7 µM (inactive); in the assay on SF-539, 19.2 µM (inactive); in the assay on SN12C, 32.3 µM (inactive); with OVCAR-3 it was 21.9 µM (inactive). Also, the GI50 with HCC 2998 was 59.6 µM (inactive); with Hs-578T it was 21.6 µM (inactive); with NCI-H460 it was 25.5 µM (inactive); in the assay on TK-10 it was 25.1 µM (inactive); with BT-549 it was 18.1 µM (inactive); in the assay with M14, 19.1 µM (inactive). The GI50 in the assay with SR is 29.3 µM (inactive); with SF-268, 18 µM (inactive); with T47D, 24.7 µM (inactive); in the assay with NCI-H522, 16.7 µM (inactive); in the assay on EKVX it was 27.9 µM (inactive); in the assay with SW-620 it was 15.8 µM (inactive). For the same compound, in the assay with RXF 393, the GI50 is 25 µM (inactive).

On to `Cc1ccc2c(c1)C/C(=C\c1ccccc1C(=O)O)C2=O`, for which the GI50 in the assay with OVCAR-8 was > 100 µM (inactive); in the assay with 786-0, > 100 µM (inactive); in the assay with PC-3 it was > 100 µM (inactive); with HCT-116 it was > 100 µM (inactive); in the assay with SF-539, 50.1 µM (inactive); in the assay with SN12C, > 100 µM (inactive). In addition, the GI50 with OVCAR-3, with HCC 2998, in the assay on Hs-578T, in the assay with NCI-H460, in the assay with TK-10 and with BT-549 was > 100 µM (inactive) each time. Further, the GI50 is 46.3 µM (inactive) with SR; > 100 µM (inactive) in the assay with SF-268; > 100 µM (inactive) in the assay with T47D; > 100 µM (inactive) in the assay on NCI-H522; > 100 µM (inactive) in the assay on EKVX; > 100 µM (inactive) in the assay with SW-620. Further, in the assay with RXF 393, the GI50 was > 100 µM (inactive).

For the compound `CC1=C[C@H]([C@H]2C=C(C)C(C(N)=O)=CN2Cc2c(Cl)cccc2Cl)N(Cc2c(Cl)cccc2Cl)C=C1C(N)=O`, the GI50 is 52.7 µM (inactive) in the assay with OVCAR-8; > 75 µM (inactive) with 786-0; > 75 µM (inactive) in the assay on PC-3; > 75 µM (inactive) with HCT-116; > 75 µM (inactive) in the assay on SF-539; > 75 µM (inactive) in the assay with SN12C. For the same compound, the GI50 in the assay with OVCAR-3, in the assay with HCC 2998, with Hs-578T, with NCI-H460, in the assay with TK-10 and with BT-549 was > 75 µM (inactive) in each case. Besides, the GI50 is > 75 µM (inactive) in the assay with M14; > 75 µM (inactive) in the assay with SR; > 75 µM (inactive) in the assay on SF-268; 37 µM (inactive) in the assay with T47D; 57.1 µM (inactive) with NCI-H522; > 75 µM (inactive) in the assay on EKVX. For the same compound, the GI50 in the assay on SW-620 was > 75 µM (inactive); with RXF 393, 74.5 µM (inactive).

Turning to `O[C@H]1[C@H]2[C@H](O)C[C@H](CCOCc3ccccc3)CN2C[C@H]1O`, the GI50 with OVCAR-8, in the assay on 786-0, with PC-3, in the assay on HCT-116, in the assay with SF-539 and with SN12C was > 100 µM (inactive) throughout. In addition, the GI50 in the assay with OVCAR-3, in the assay on HCC 2998, in the assay with Hs-578T, in the assay with NCI-H460, in the assay with BT-549 and in the assay with M14 was > 100 µM (inactive) throughout. Besides, the GI50 in the assay with SR, in the assay on SF-268, with T47D, in the assay with NCI-H522, with EKVX and in the assay on SW-620 was > 100 µM (inactive) in each case. The GI50 in the assay with RXF 393 was > 100 µM (inactive).

Turning to `CCOC(=O)c1sc2nc1CSc1sc(=S)sc1SCc1nc(sc1C(=O)OCC)-c1nc(c(C(=O)OCC)s1)CSc1sc(=S)sc1SCc1nc-2sc1C(=O)OCC`, the GI50 in the assay with OVCAR-8, in the assay on 786-0, with PC-3, in the assay with HCT-116, in the assay with SF-539 and in the assay with SN12C was > 10 µM (inactive) each time. For the same compound, the GI50 with OVCAR-3, in the assay with HCC 2998, in the assay on Hs-578T, in the assay with NCI-H460, in the assay with TK-10 and in the assay with BT-549 was > 10 µM (inactive) throughout. In addition, the GI50 in the assay on SR, in the assay on SF-268, in the assay with T47D, in the assay with NCI-H522, with EKVX and in the assay on SW-620 was > 10 µM (inactive) each time. For the same compound, the GI50 in the assay with RXF 393 is > 10 µM (inactive).

Take `COc1cc(NC=C2C(=O)OC(C)(C)OC2=O)c(OC)c(C)c1OC`: the GI50 with OVCAR-8, in the assay with 786-0, with PC-3, with HCT-116, in the assay with SF-539 and with SN12C was > 100 µM (inactive) in each case. Further, the GI50 with OVCAR-3, in the assay with HCC 2998, in the assay with Hs-578T, with NCI-H460, in the assay on TK-10 and in the assay with BT-549 was > 100 µM (inactive) in each case. Besides, the GI50 in the assay on M14, with SR, with SF-268, in the assay with T47D, in the assay on NCI-H522 and in the assay with EKVX was > 100 µM (inactive) each time. The GI50 with SW-620 and in the assay on RXF 393 was > 100 µM (inactive) throughout.
